In patent US9724355B2, “Fulvestrant compositions and methods of use” (SHIMODA BIOTECH (PTY) LTD, priority 2010, dated 2017):

Assay: Fulvestrant aqueous solubility in the presence and absence of cyclodextrins (excess drug, shaken 24 h, filtered, HPLC)
Type: physicochemical
Details: for True Fulvestrant Concentration: 22° C., 24 h; for Average Concentration / Quantity of Fulvestrant Diluted Run 1 / Quantity of Fulvestrant Diluted Run 2: diluted sample
Protocol: The HPLC system used for the chromatographic determination of fulvestrant consisted of a Waters 600E quaternary gradient pump, a Waters 717plus WISP auto-sampler and a Waters 2487 Dual A, Absorbance detector. Separation was performed using a Phenomenex Luna C18 column (250×4.6 mm; 5 urn) (Phenomenex, Torrance, Calif.) (supplied by Separations, South Africa) and a mobile phase consisting of 50% MeCN:22.5% ddH2O :27.5% MeOH. The mobile phase was degassed and filtered prior to use. […] Sample run times were 15 minutes. The UV detector wavelength was set to 280 nm.
1 mL of each of the following aqueous solutions was prepared containing 0; 25; 50; 75 and 100 mg/mL ACD in ddHiO. Excess fulvestrant was added to each of these solutions and the samples were shaken for 24 hours on an orbital shaker at 200 rpm and at 22° C. room temperature. Excess fulvestrant was present in all samples at all times. After 24-hours, the samples were filtered through 0.45 μm syringe tip filters, diluted according to requirements and assayed by HPLC.
1 mL of each of the following aqueous solutions was prepared containing 0; 5; 7.5; 10 and 15 mg/mL BCD in ddH2O. Excess fulvestrant was added to each of these solutions and the samples were shaken for 24 hours on an orbital shaker at 200 rpm and at 22° C. room temperature. Excess fulvestrant was present in all samples at all times. After 24-hours, the samples were filtered through 0.45 μm syringe tip filters, diluted according to requirements and assayed by HPLC.
1 mL of each of the following aqueous solutions was prepared containing 0; 50; 100; 150; 200; 250; 300; 350 and 400 mg/mL MBCD in ddH2O. Excess fulvestrant was added to each of these solutions and the samples were shaken for 24 hours on an orbital shaker at 200 rpm and at 22° C. room temperature. Excess fulvestrant was present in all samples at all times. After 24-hours, the samples were filtered through 0.45 μm syringe tip filters, diluted according to requirements and assayed by HPLC.
1 mL of each of the following aqueous solutions was prepared containing 0; 50; 100; 150; 200; 250; 300; 350 and 400 mg/mL HPBCD in ddH2O. Excess fulvestrant was added to each of these solutions and the samples were shaken for 24 hours on an orbital shaker at 200 rpm and at 22° C. room temperature. Excess fulvestrant was present in all samples at all times. After 24-hours, the samples were filtered through 0.45 μm syringe tip filters, diluted according to requirements and assayed by HPLC.
1 mL of each of the following aqueous solutions was prepared containing 0; 50; 100; 150; 200; 250; 300; 350 and 400 mg/mL SBEBCD in ddH2O. Excess fulvestrant was added to each of these solutions and the samples were shaken for 24 hours on an orbital shaker at 200 rpm and at 22° C. room temperature. Excess fulvestrant was present in all samples at all times. After 24-hours, the samples were filtered through 0.45 μm syringe tip filters, diluted according to requirements and assayed by HPLC.
1 mL of each of the following aqueous solutions was prepared containing 0; 50; 100; 150; and 200 mg/mL GCD in ddHO. Excess fulvestrant was added to each of these solutions and the samples were shaken for 24 hours on an orbital shaker at 200 rpm and at 22° C. room temperature. Excess fulvestrant was present in all samples at all times. After 24-hours, the samples were filtered through 0.45 μm syringe tip filters, diluted according to requirements and assayed by HPLC.
1 mL of each of the following aqueous solutions was prepared containing 0; 50; 100; 150; 200; 250; 300; 350 and 400 mg/mL HPGCD in ddH2O. Excess fulvestrant was added to each of these solutions and the samples were shaken for 24 hours on an orbital shaker at 200 rpm and at 22° C. room temperature. Excess fulvestrant was present in all samples at all times. After 24-hours, the samples were filtered through 0.45 μm syringe tip filters, diluted according to requirements and assayed by HPLC.

## C[C@]12CC[C@@H]3c4ccc(O)cc4C[C@@H](CCCCCCCCC[S+]([O-])CCCC(F)(F)C(F)(F)F)[C@H]3[C@@H]1CC[C@@H]2O (stereo partly drawn) [Fulvestrant, 7-alpha-[9-(4,4,5,5,5-pentafluoropentylsulphinyl)nonyl]estra-1,3,5-(10)-triene-3,17-beta-diol]
0 mg/mL ACD in ddH2O
  True Fulvestrant Concentration: <0.010 mg/mL
0 mg/mL ACD
  Average Concentration: <10.00 µg/mL
  Quantity of Fulvestrant Diluted Run 1: <10.000 µg/mL
  Quantity of Fulvestrant Diluted Run 2: <10.010 µg/mL
0 mg/mL BCD in ddH2O
  True Fulvestrant Concentration: <0.010 mg/mL
0 mg/mL BCD
  Average Concentration: <10.00 µg/mL
  Quantity of Fulvestrant Diluted Run 1: <10.000 µg/mL
  Quantity of Fulvestrant Diluted Run 2: <10.000 µg/mL
0 mg/mL GCD in ddH2O
  True Fulvestrant Concentration: <0.010 mg/mL
0 mg/mL GCD
  Average Concentration: <10.00 µg/mL
  Quantity of Fulvestrant Diluted Run 1: <10.000 µg/mL
  Quantity of Fulvestrant Diluted Run 2: <10.000 µg/mL
0 mg/mL HPBCD in ddH2O
  True Fulvestrant Concentration: <0.010 mg/mL
0 mg/mL HPBCD
  Average Concentration: <10.00 µg/mL
  Quantity of Fulvestrant Diluted Run 1: <10.00 µg/mL
  Quantity of Fulvestrant Diluted Run 2: <10.00 µg/mL
0 mg/mL HPGCD in ddH2O
  True Fulvestrant Concentration: <0.010 mg/mL
0 mg/mL HPGCD
  Average Concentration: <10.00 µg/mL
  Quantity of Fulvestrant Diluted Run 1: <10.00 µg/mL
  Quantity of Fulvestrant Diluted Run 2: <10.00 µg/mL
0 mg/mL MBCD in ddH2O
  True Fulvestrant Concentration: <0.010 mg/mL
0 mg/mL MBCD
  Average Concentration: <10.00 µg/mL
  Quantity of Fulvestrant Diluted Run 1: <10.00 µg/mL
  Quantity of Fulvestrant Diluted Run 2: <10.00 µg/mL
0 mg/mL SBEBCD
  Average Concentration: <10.00 µg/mL
  Quantity of Fulvestrant Diluted Run 1: <10.00 µg/mL
  Quantity of Fulvestrant Diluted Run 2: <10.00 µg/mL
5 mg/mL BCD in ddH2O
  True Fulvestrant Concentration: <0.010 mg/mL
5 mg/mL BCD
  Average Concentration: <10.00 µg/mL
  Quantity of Fulvestrant Diluted Run 1: <10.000 µg/mL
  Quantity of Fulvestrant Diluted Run 2: <10.000 µg/mL
10 mg/mL BCD in ddH2O
  True Fulvestrant Concentration: <0.010 mg/mL
10 mg/mL BCD
  Average Concentration: <10.00 µg/mL
  Quantity of Fulvestrant Diluted Run 1: <10.000 µg/mL
  Quantity of Fulvestrant Diluted Run 2: <10.000 µg/mL
15 mg/mL BCD in ddH2O
  True Fulvestrant Concentration: 0.013 mg/mL
15 mg/mL BCD
  Average Concentration: 13.00 µg/mL
  Quantity of Fulvestrant Diluted Run 1: 13.060 µg/mL
  Quantity of Fulvestrant Diluted Run 2: 12.940 µg/mL
25 mg/mL ACD in ddH2O
  True Fulvestrant Concentration: 0.033 mg/mL
25 mg/mL ACD
  Average Concentration: 33.30 µg/mL
  Quantity of Fulvestrant Diluted Run 1: 33.620 µg/mL
  Quantity of Fulvestrant Diluted Run 2: 32.970 µg/mL
50 mg/mL ACD in ddH2O
  True Fulvestrant Concentration: 0.111 mg/mL
50 mg/mL ACD
  Average Concentration: 110.74 µg/mL
  Quantity of Fulvestrant Diluted Run 1: 110.600 µg/mL
  Quantity of Fulvestrant Diluted Run 2: 110.880 µg/mL
50 mg/mL GCD in ddH2O
  True Fulvestrant Concentration: 0.011 mg/mL
50 mg/mL GCD
  Average Concentration: 10.62 µg/mL
  Quantity of Fulvestrant Diluted Run 1: 10.700 µg/mL
  Quantity of Fulvestrant Diluted Run 2: 10.530 µg/mL
50 mg/mL HPBCD in ddH2O
  True Fulvestrant Concentration: 0.210 mg/mL
50 mg/mL HPBCD
  Average Concentration: 20.95 µg/mL
  Quantity of Fulvestrant Diluted Run 1: 21.09 µg/mL
  Quantity of Fulvestrant Diluted Run 2: 20.81 µg/mL
50 mg/mL HPGCD in ddH2O
  True Fulvestrant Concentration: 0.037 mg/mL
50 mg/mL HPGCD
  Average Concentration: 38.32 µg/mL
  Quantity of Fulvestrant Diluted Run 1: 38.66 µg/mL
  Quantity of Fulvestrant Diluted Run 2: 37.97 µg/mL
50 mg/mL MBCD in ddH2O
  True Fulvestrant Concentration: 0.750 mg/mL
50 mg/mL MBCD
  Average Concentration: 74.99 µg/mL
  Quantity of Fulvestrant Diluted Run 1: 74.61 µg/mL
  Quantity of Fulvestrant Diluted Run 2: 75.37 µg/mL
50 mg/mL SBEBCD in ddH2O
  True Fulvestrant Concentration: 0.077 mg/mL
50 mg/mL SBEBCD
  Average Concentration: 77.30 µg/mL
  Quantity of Fulvestrant Diluted Run 1: 76.98 µg/mL
  Quantity of Fulvestrant Diluted Run 2: 77.61 µg/mL
75 mg/mL ACD in ddH2O
  True Fulvestrant Concentration: 0.310 mg/mL
75 mg/mL ACD
  Average Concentration: 310.32 µg/mL
  Quantity of Fulvestrant Diluted Run 1: 310.460 µg/mL
  Quantity of Fulvestrant Diluted Run 2: 310.170 µg/mL
100 mg/mL ACD in ddH2O
  True Fulvestrant Concentration: 1.683 mg/mL
100 mg/mL ACD
  Average Concentration: 168.26 µg/mL
  Quantity of Fulvestrant Diluted Run 1: 162.660 µg/mL
  Quantity of Fulvestrant Diluted Run 2: 173.850 µg/mL
100 mg/mL GCD in ddH2O
  True Fulvestrant Concentration: <0.010 mg/mL
100 mg/mL GCD
  Average Concentration: <10.00 µg/mL
  Quantity of Fulvestrant Diluted Run 1: <10.000 µg/mL
  Quantity of Fulvestrant Diluted Run 2: <10.000 µg/mL
100 mg/mL HPBCD in ddH2O
  True Fulvestrant Concentration: 0.483 mg/mL
100 mg/mL HPBCD
  Average Concentration: 48.30 µg/mL
  Quantity of Fulvestrant Diluted Run 1: 48.32 µg/mL
  Quantity of Fulvestrant Diluted Run 2: 48.27 µg/mL
100 mg/mL HPGCD in ddH2O
  True Fulvestrant Concentration: 0.107 mg/mL
100 mg/mL HPGCD
  Average Concentration: 116.27 µg/mL
  Quantity of Fulvestrant Diluted Run 1: 116.80 µg/mL
  Quantity of Fulvestrant Diluted Run 2: 115.74 µg/mL
100 mg/mL MBCD in ddH2O
  True Fulvestrant Concentration: 3.021 mg/mL
100 mg/mL MBCD
  Average Concentration: 302.06 µg/mL
  Quantity of Fulvestrant Diluted Run 1: 302.12 µg/mL
  Quantity of Fulvestrant Diluted Run 2: 301.99 µg/mL
100 mg/mL SBEBCD in ddH2O
  True Fulvestrant Concentration: 0.167 mg/mL
100 mg/mL SBEBCD
  Average Concentration: 167.10 µg/mL
  Quantity of Fulvestrant Diluted Run 1: 167.7 µg/mL
  Quantity of Fulvestrant Diluted Run 2: 166.49 µg/mL
150 mg/mL GCD in ddH2O
  True Fulvestrant Concentration: <0.010 mg/mL
150 mg/mL GCD
  Average Concentration: <10.00 µg/mL
  Quantity of Fulvestrant Diluted Run 1: <10.000 µg/mL
  Quantity of Fulvestrant Diluted Run 2: <10.000 µg/mL
150 mg/mL HPBCD in ddH2O
  True Fulvestrant Concentration: 0.937 mg/mL
150 mg/mL HPBCD
  Average Concentration: 93.66 µg/mL
  Quantity of Fulvestrant Diluted Run 1: 93.82 µg/mL
